Measured values taken from ChEMBL document CHEMBL1139580, “Pyrrolo[1,2-a][1,4]benzodiazepine: a novel class of non-azole anti-dermatophyte anti-fungal agents” (Bioorg Med Chem Lett, 2005).
Values after ≈ are worked out from the molar mass of the structure shown.

Columns and labels:
Candida parapsilosis = test: Minimum inhibitory concentration against Candida B66126 parapsilosis by microdilution method; format: functional; details: Lodderomyces parapsilosis
[1] = Minimum inhibitory concentration against Sporothrix schenckii B64284 by microdilution method; format: functional
[2] = Minimum inhibitory concentration against Trichophyton rubrum B68183 by microdilution method; format: functional
[3] = Minimum inhibitory concentration against Trichophyton mentagrophytes B70554 by microdilution method; format: functional; details: Trichophyton benhamiae
[4] = Minimum inhibitory concentration against Microsporum canis B68128 by microdilution method; format: functional
Aspergillus fumigatus = test: Minimum inhibitory concentration against Aspergillus fumigatus B42928 by microdilution method; format: functional
Cryptococcus neoformans = test: Minimum inhibitory concentration against Cryptococcus neoformans B66663 by microdilution method; format: functional
[5] = Bioavailability in plasma of Microsporum canis infected guinea pig after […] administration of 2 mg/kg dose; format: ADME, organism-based, Cavia porcellus; details: read-out: Activity

Structure (SMILES) | MIC (Candida parapsilosis) | MIC [1] | MIC [2] | MIC [3] | MIC [4] | MIC (Aspergillus fumigatus) | MIC (Cryptococcus neoformans) | bioavailability [5]
CCc1ccc(C2NCc3c(F)cccc3-n3cccc32)cc1 (stereo not given) | 10 µM (≈ 3.06 µg/mL) | 100 µM (≈ 30.6 µg/mL) | 0.32 µM (≈ 0.098 µg/mL) | 1 µM (≈ 0.306 µg/mL) | 3.2 µM (≈ 0.98 µg/mL) | 10 µM (≈ 3.06 µg/mL) | 100 µM (≈ 30.6 µg/mL) | –
CCc1ccc(C2NCc3c(Cl)cccc3-n3cccc32)cc1 (stereo not given) | 1 µM (≈ 0.323 µg/mL) | 100 µM (≈ 32.3 µg/mL) | 0.03 µM (≈ 0.00969 µg/mL) | 0.1 µM (≈ 0.0323 µg/mL) | 0.32 µM (≈ 0.103 µg/mL) | 3.2 µM (≈ 1.03 µg/mL) | 100 µM (≈ 32.3 µg/mL) | –
CCc1ccc(C2=NCc3ccc(Cl)cc3-n3cccc32)cc1 | 1 µM (≈ 0.321 µg/mL) | 6.6 µM (≈ 2.12 µg/mL) | 0.065 µM (≈ 0.0209 µg/mL) | 0.1 µM (≈ 0.0321 µg/mL) | 0.32 µM (≈ 0.103 µg/mL) | 0.32 µM (≈ 0.103 µg/mL) | 1 µM (≈ 0.321 µg/mL) | –
CCc1ccc([C@H]2NCc3c(Cl)cccc3-n3cccc32)cc1 | 0.32 µM (≈ 0.103 µg/mL) | 100 µM (≈ 32.3 µg/mL) | 0.03 µM (≈ 0.00969 µg/mL) | 0.01 µM (≈ 0.00323 µg/mL) | 0.32 µM (≈ 0.103 µg/mL) | 1 µM (≈ 0.323 µg/mL) | 100 µM (≈ 32.3 µg/mL) | < 5%
CCc1ccc(C2NCc3c(C)cccc3-n3cccc32)cc1 (stereo not given) | 55 µM (≈ 16.6 µg/mL) | 100 µM (≈ 30.2 µg/mL) | 0.21 µM (≈ 0.0635 µg/mL) | 1 µM (≈ 0.302 µg/mL) | 2.1 µM (≈ 0.635 µg/mL) | 100 µM (≈ 30.2 µg/mL) | 100 µM (≈ 30.2 µg/mL) | –
Cc1ccc(C2NCc3c(Cl)cccc3-n3cccc32)cc1 (stereo not given) | 100 µM (≈ 30.9 µg/mL) | 100 µM (≈ 30.9 µg/mL) | 0.1 µM (≈ 0.0309 µg/mL) | 2.1 µM (≈ 0.649 µg/mL) | 2.1 µM (≈ 0.649 µg/mL) | 100 µM (≈ 30.9 µg/mL) | 100 µM (≈ 30.9 µg/mL) | –
CCc1ccc(C2c3cccn3-c3cccc(Cl)c3CN2C)cc1 (stereo not given) | 100 µM (≈ 33.7 µg/mL) | 100 µM (≈ 33.7 µg/mL) | 51.6 µM (≈ 17.4 µg/mL) | 55 µM (≈ 18.5 µg/mL) | 100 µM (≈ 33.7 µg/mL) | 100 µM (≈ 33.7 µg/mL) | 100 µM (≈ 33.7 µg/mL) | –
Clc1cccc2c1CNC(c1ccccc1)c1cccn1-2 (stereo not given) | 100 µM (≈ 29.5 µg/mL) | 100 µM (≈ 29.5 µg/mL) | 0.32 µM (≈ 0.0943 µg/mL) | 100 µM (≈ 29.5 µg/mL) | 100 µM (≈ 29.5 µg/mL) | 100 µM (≈ 29.5 µg/mL) | 100 µM (≈ 29.5 µg/mL) | –
CCc1ccc(C2NCc3cccc(Cl)c3-n3cccc32)cc1 (stereo not given) | 100 µM (≈ 32.3 µg/mL) | 100 µM (≈ 32.3 µg/mL) | 1 µM (≈ 0.323 µg/mL) | 3.2 µM (≈ 1.03 µg/mL) | 3.2 µM (≈ 1.03 µg/mL) | 100 µM (≈ 32.3 µg/mL) | 100 µM (≈ 32.3 µg/mL) | –
CCc1ccccc1C1NCc2c(Cl)cccc2-n2cccc21 (stereo not given) | 100 µM (≈ 32.3 µg/mL) | 100 µM (≈ 32.3 µg/mL) | 10 µM (≈ 3.23 µg/mL) | 100 µM (≈ 32.3 µg/mL) | 100 µM (≈ 32.3 µg/mL) | 100 µM (≈ 32.3 µg/mL) | 100 µM (≈ 32.3 µg/mL) | –
CC(C)(C)c1ccc(C2NCc3c(Cl)cccc3-n3cccc32)cc1 (stereo not given) | 55 µM (≈ 19.3 µg/mL) | 55 µM (≈ 19.3 µg/mL) | 1 µM (≈ 0.351 µg/mL) | 1 µM (≈ 0.351 µg/mL) | 0.66 µM (≈ 0.232 µg/mL) | 100 µM (≈ 35.1 µg/mL) | 100 µM (≈ 35.1 µg/mL) | –
CCc1ccc(C2NCc3c(OC)cccc3-n3cccc32)cc1 (stereo not given) | 100 µM (≈ 31.8 µg/mL) | 100 µM (≈ 31.8 µg/mL) | 3.2 µM (≈ 1.02 µg/mL) | 10 µM (≈ 3.18 µg/mL) | 10 µM (≈ 3.18 µg/mL) | 100 µM (≈ 31.8 µg/mL) | 100 µM (≈ 31.8 µg/mL) | –
